Laboratory results as given in patent publication US20240279195A1, “SOLID STATE FORMS OF ABEXINOSTAT AND PROCESS FOR PREPARATION THEREOF” (TEVA PHARMACEUTICALS INTERNATIONAL GMBH, priority 2021, published 2024).

Test: solid state stability of the crystalline form upon heating, pressure, grinding and exposure to humidity
Assay type: physicochemical

stability of the crystalline form | Substance
stable | Abexinostat fumarate [Form F3]
stable | Abexinostat maleate [Form M1]
stable | Abexinostat tosylate [Form T1]
